Data on eight molecules can be found in patent publication US20260217767A1, “NOVEL A4B7 THIOETHER PEPTIDE DIMER ANTAGONISTS” (Protagonist Therapeutics, Inc., priority 2014, published 2026).

Structures are written as SMILES. Where a SMILES comes first, the peptide text is derived from it. Some results are limits rather than exact numbers.

System in one data set: not listed separately
In words: Simulated Intestinal Fluid (SIF) Stability Assay. In kind it is in vitro ADME. The note with it: simulated gi fluid, porcine pancreatin, 37° C.; monomers, Table 6. The method, then:
Simulated Intestinal Fluid (SIF) Stability Assay
Studies were carried out in simulated intestinal fluid (SIF) to evaluate intestinal stability of the peptide molecules of the instant invention. To prepare the SIF reagent, blank FASSIF was prepared by dissolving 0.348 g NaOH, 3.954 g sodium phosphate monobasic monohydrate and 6.186 g NaCl in a final volume of 1 liter water (final pH=6.5). To this solution, 24 g porcine pancreatin (Sigma catalog P7545) was added and stirred for 30 minutes (final pancreatin concentration is 2.4%). The solution was filtered through a cheese cloth and a No. 1 Whatman filter, and 10 ml aliquots were stored at −70° C. To run the reaction, a 10 ml aliquot was thawed at 37° C., and 125 μl aliquots were removed and mixed with an equal volume of blank FASSIF. The peptide stock solution (10 mM in 100% DMSO) was diluted 75-fold in blank FASSIF. A 50 μl aliquot of the diluted peptide was combined with 125 μl pancreatin (2.4%) and 125 μl blank FASSIF to yield final concentrations of 1% pancreatin and 22 μM peptide. The reactions were incubated at 37° C., and at various time points 50 μl aliquots were removed and added to 200 μl of quench solution containing 50% acetonitrile, 50% methanol, 5% formic acid, and 1 μg/ml internal standard. The quenched samples were centrifuged at 10,000 rpm for 10 minutes, and the supernatants were analyzed by LCMS/MS. The percent remaining at each time point was calculated based on the peak area response ratio of test to compound to internal standard. Half-lives were calculated by fitting to a first-order exponential decay equation using GraphPad. A small sampling of the results of these studies is provided and discussed herein and in the accompanying figures.
A word on the half-life: it is the time in which the quantity being followed falls by half. `CC(C)C[C@@H]1NC(=O)[C@H]([C@@H](C)O)NC(=O)[C@H](CC(=O)O)NC(=O)[C@H](CO)NC(=O)[C@H](CCCNC(=N)N)N(C)C(=O)c2ccccc2CSC(C)(C)[C@@H](C(=O)N[C@@H](Cc2c[nH]c3ccccc23)C(=O)N[C@@H](CCC(=O)O)C(=O)N[C@H](CCCCN)C(N)=O)NC1=O` [compound 56] (HELM PEPTIDE1{[meR].S.D.T.L.[Pen].W.E.[dK].[am]}|CHEM1{[O=C(c1ccccc1C[*:2])[*:1]]}$PEPTIDE1,CHEM1,1:R1-1:R1|PEPTIDE1,CHEM1,6:R3-1:R2$$$V2.0) showed a half-life of 3.1 h.

For the next data set, the target named is T1, RPMI 8866 cells (Homo sapiens, UniProt P13612+P26010).
T1 sequence (P13612 34-1032): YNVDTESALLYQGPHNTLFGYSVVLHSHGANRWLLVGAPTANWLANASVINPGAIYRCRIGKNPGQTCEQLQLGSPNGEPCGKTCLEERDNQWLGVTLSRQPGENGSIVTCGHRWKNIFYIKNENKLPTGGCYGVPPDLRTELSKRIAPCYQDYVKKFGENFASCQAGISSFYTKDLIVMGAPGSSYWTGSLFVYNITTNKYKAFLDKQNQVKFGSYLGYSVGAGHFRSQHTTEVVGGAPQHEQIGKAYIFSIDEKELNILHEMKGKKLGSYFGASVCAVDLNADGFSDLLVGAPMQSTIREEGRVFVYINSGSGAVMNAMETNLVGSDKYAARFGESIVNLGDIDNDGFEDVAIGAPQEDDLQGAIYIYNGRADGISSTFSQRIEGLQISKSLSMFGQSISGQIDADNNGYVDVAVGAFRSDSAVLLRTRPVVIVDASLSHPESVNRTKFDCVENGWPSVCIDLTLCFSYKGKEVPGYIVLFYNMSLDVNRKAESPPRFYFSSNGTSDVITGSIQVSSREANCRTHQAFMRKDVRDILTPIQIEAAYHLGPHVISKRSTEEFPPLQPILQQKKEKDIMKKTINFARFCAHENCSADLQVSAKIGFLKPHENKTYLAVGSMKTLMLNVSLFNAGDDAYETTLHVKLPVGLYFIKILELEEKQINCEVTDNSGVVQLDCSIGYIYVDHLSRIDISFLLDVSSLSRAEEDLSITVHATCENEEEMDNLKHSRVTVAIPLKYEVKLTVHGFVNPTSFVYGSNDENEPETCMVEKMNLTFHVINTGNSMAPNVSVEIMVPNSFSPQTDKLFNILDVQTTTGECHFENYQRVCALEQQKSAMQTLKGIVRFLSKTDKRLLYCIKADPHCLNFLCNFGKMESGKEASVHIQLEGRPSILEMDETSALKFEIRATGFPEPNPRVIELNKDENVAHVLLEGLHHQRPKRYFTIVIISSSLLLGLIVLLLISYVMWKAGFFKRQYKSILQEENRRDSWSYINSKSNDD
T1 sequence (P26010 20-798): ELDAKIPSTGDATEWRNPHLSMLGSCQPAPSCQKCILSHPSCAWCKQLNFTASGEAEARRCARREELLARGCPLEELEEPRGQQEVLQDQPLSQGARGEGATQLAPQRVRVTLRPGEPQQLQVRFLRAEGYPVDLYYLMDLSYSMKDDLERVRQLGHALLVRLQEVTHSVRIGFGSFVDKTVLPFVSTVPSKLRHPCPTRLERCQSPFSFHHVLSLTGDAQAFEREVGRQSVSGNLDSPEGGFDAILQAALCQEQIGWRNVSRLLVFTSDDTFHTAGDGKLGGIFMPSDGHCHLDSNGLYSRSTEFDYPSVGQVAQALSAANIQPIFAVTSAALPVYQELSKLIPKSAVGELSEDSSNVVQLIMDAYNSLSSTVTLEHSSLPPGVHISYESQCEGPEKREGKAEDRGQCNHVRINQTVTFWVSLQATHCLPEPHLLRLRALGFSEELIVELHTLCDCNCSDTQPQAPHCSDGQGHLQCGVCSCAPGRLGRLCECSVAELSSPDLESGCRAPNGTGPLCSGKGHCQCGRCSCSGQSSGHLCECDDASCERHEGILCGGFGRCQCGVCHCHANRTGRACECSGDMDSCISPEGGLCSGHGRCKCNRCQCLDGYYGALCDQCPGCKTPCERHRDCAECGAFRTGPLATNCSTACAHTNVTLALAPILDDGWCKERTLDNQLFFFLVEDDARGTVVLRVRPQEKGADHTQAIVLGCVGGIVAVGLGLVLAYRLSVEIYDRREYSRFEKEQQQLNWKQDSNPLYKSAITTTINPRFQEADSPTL
Description: α4β7-MAdCAM Cell Adhesion Assay. In kind it is cell-based. As to conditions: thioether peptide dimers, Table 7; read-out: Cell-Adhesion A4B7. How it is done:
α4β7-MAdCAM Cell Adhesion Assay
RPMI 8866 cells (Sigma #95041316) were cultured in RPMI 1640 HEPES medium (Invitrogen #22400-089) supplemented with 10% serum (Fetal Bovine Serum, Invitrogen #16140-071), 1 mM sodium pyruvate (Invitrogen #11360-070), 2 mM L-glutamine (Invitrogen #25030-081) and Penicillin-Streptomycin (Invitrogen #15140-122) at 100 units of penicillin and 100 μg of streptomycin per ml. The cells were washed two times in DMEM medium (ATCC #30-2002) supplemented with 0.1% BSA, 10 mM HEPES pH 7 and 1 mM MnCl2. The cells were re-suspended in supplemented DMEM medium at a density of 4×10^6 cells/ml.
A Nunc MaxiSorp plate was coated with rh MAdCAM-1/Fc Chimera (R&D #6065-MC) at 200 ng per well in 50 ul per well in 1×PBS and incubated at 4° C. overnight. The solution was then removed by shaking, blocked with 250 ul per well PBS containing 1% BSA, and incubated at 37° C. for 1 hr. The solution was removed by shaking. Peptides were diluted by serial dilution in a final volume of 50 ul per well (2× concentration). To each well, 50 ul of cells (200,000 cells) were added and the plate was incubated at 37° C., 5% CO2 for 30-45 min to allow cell adhesion. The wells were washed manually three times (100 ul per wash) with supplemented DMEM. After the final wash, 100 μl/well of supplemented DMEM and 10 ul/well of MTT reagent (ATTC cat #30-1010K) were added. The plate was incubated at 37° C., 5% CO2 for 2-3 hrs until a purple precipitate is visible. 100 ul of Detergent Reagent (ATTC cat #30-1010K) was added to each well. The plate was covered from the light, wrapped in Parafilm to prevent evaporation, and left overnight at room temperature in the dark. The plate was shaken for 5 min and the absorbance at 570 nm is measured. To calculate the dose response, the absorbance value of control wells not containing cells was subtracted from each test well.
As for `CC(C)C[C@@H]1NC(=O)[C@H]([C@@H](C)O)NC(=O)[C@H](CC(=O)O)NC(=O)[C@H](CO)NC(=O)[C@H](CCCNC(=N)N)N(C)C(=O)c2ccccc2CSC(C)(C)[C@@H](C(=O)N[C@@H](Cc2c[nH]c3ccccc23)C(=O)N[C@H](CCC(=O)O)C(=O)N[C@H](Cc2ccc(O)cc2)C(=O)N[C@H](CCCCN)C(N)=O)NC1=O` [compound 201] (HELM PEPTIDE1{[meR].S.D.T.L.[Pen].W.[dE].[dY].[dK].[am]}|CHEM1{[O=C(c1ccccc1C[*:2])[*:1]]}$PEPTIDE1,CHEM1,1:R1-1:R1|PEPTIDE1,CHEM1,6:R3-1:R2$$$V2.0), the IC50 was less than 25 nM. Same read-out and setting: under `CC(C)C[C@@H]1NC(=O)[C@H]([C@@H](C)O)NC(=O)[C@H](CC(=O)O)NC(=O)[C@H](CO)NC(=O)[C@H](CCCNC(=N)N)N(C)C(=O)c2ccccc2CSC(C)(C)[C@@H](C(=O)N[C@@H](Cc2c[nH]c3ccccc23)C(=O)N[C@@H](Cc2ccc(-c3ccccc3)cc2)C(=O)N[C@H](CCCCN)C(N)=O)NC1=O` [compound 202] (HELM PEPTIDE1{[meR].S.D.T.L.[Pen].W.[O=C([C@H](Cc1ccc(-c2ccccc2)cc1)N[*:1])[*:2]].[dK].[am]}|CHEM1{[O=C(c1ccccc1C[*:2])[*:1]]}$PEPTIDE1,CHEM1,1:R1-1:R1|PEPTIDE1,CHEM1,6:R3-1:R2$$$V2.0) stands 100 to 1000 nM; under `CC(C)C[C@@H]1NC(=O)[C@H]([C@@H](C)O)NC(=O)[C@H](CC(=O)O)NC(=O)[C@H](CO)NC(=O)[C@H](CCCNC(=N)N)N(C)C(=O)c2ccccc2CSC(C)(C)[C@@H](C(=O)N[C@@H](Cc2ccccc2)C(=O)N[C@@H](Cc2ccc(-c3ccccc3)cc2)C(=O)N[C@H](CCCCN)C(N)=O)NC1=O` [compound 203] (HELM PEPTIDE1{[meR].S.D.T.L.[Pen].F.[O=C([C@H](Cc1ccc(-c2ccccc2)cc1)N[*:1])[*:2]].[dK].[am]}|CHEM1{[O=C(c1ccccc1C[*:2])[*:1]]}$PEPTIDE1,CHEM1,1:R1-1:R1|PEPTIDE1,CHEM1,6:R3-1:R2$$$V2.0), 100 to 1000 nM.

In the case of `CC(C)C[C@@H]1NC(=O)[C@H]([C@@H](C)O)NC(=O)[C@H](CC(=O)O)NC(=O)[C@H](CO)NC(=O)[C@H](CCCNC(=N)N)N(C)C(=O)c2ccccc2CSC[C@@H](C(=O)N2Cc3ccccc3C[C@H]2C(=O)N[C@@H](Cc2ccc(-c3ccccc3)cc2)C(=O)N[C@H](CCCCN)C(N)=O)NC1=O` [compound 205] (HELM PEPTIDE1{[meR].S.D.T.L.C.[Tic].[O=C([C@H](Cc1ccc(-c2ccccc2)cc1)N[*:1])[*:2]].[dK].[am]}|CHEM1{[O=C(c1ccccc1C[*:2])[*:1]]}$PEPTIDE1,CHEM1,1:R1-1:R1|PEPTIDE1,CHEM1,6:R3-1:R2$$$V2.0), the IC50 was 100 to 1000 nM. Same read-out and setting: for `CC(C)C[C@@H]1NC(=O)[C@H]([C@@H](C)O)NC(=O)[C@H](CC(=O)O)NC(=O)[C@H](CO)NC(=O)[C@H](CCCNC(=N)N)N(C)C(=O)c2ccccc2CSC(C)(C)[C@@H](C(=O)N[C@@H](Cc2ccc3ccccc3c2)C(=O)N[C@@H](Cc2ccc(-c3ccccc3)cc2)C(=O)N[C@H](CCCCN)C(N)=O)NC1=O` [compound 206] the value was more than 1000 nM; for `COC(=O)CC[C@H](NC(=O)[C@H](Cc1c[nH]c2ccccc12)NC(=O)[C@H]1NC(=O)[C@H](CC(C)C)NC(=O)[C@H]([C@@H](C)O)NC(=O)[C@H](CC(=O)O)NC(=O)[C@H](CO)NC(=O)[C@H](CCCNC(=N)N)N(C)C(=O)c2ccccc2CSC1(C)C)C(=O)N[C@H](CCCCN)C(N)=O` [compound 210] (HELM PEPTIDE1{[meR].S.D.T.L.[Pen].W.E.[dK].[am]}|CHEM1{[CO[*:1]]}|CHEM2{[O=C(c1ccccc1C[*:2])[*:1]]}$PEPTIDE1,CHEM1,8:R3-1:R1|PEPTIDE1,CHEM2,1:R1-1:R1|PEPTIDE1,CHEM2,6:R3-1:R2$$$V2.0), 100 to 1000 nM. The same measure, in the same setting: under `CC(C)C[C@@H]1NC(=O)[C@H]([C@@H](C)O)NC(=O)[C@H](CC(=O)O)NC(=O)[C@H](CO)NC(=O)[C@H](CCCNC(=N)N)N(C)C(=O)c2ccccc2CSC(C)(C)[C@@H](C(=O)N[C@@H](Cc2c[nH]c3ccccc23)C(=O)N[C@H](CCC(=O)O)C(=O)N[C@H](CCCCN)C(N)=O)NC1=O` [compound 212] (HELM PEPTIDE1{[meR].S.D.T.L.[Pen].W.[dE].[dK].[am]}|CHEM1{[O=C(c1ccccc1C[*:2])[*:1]]}$PEPTIDE1,CHEM1,1:R1-1:R1|PEPTIDE1,CHEM1,6:R3-1:R2$$$V2.0) stands 25 to 100 nM.
